Source: patent US8343475B2, “Small cationic antimicrobial peptides” (priority 2006, dated 2013)
≈ marks a conversion by molar mass, not a printed value. Residues, ends and D or L forms follow the SMILES beside them.

Columns and labels:
[1] = test system: CXCL1 (Gro-α) release by human PBMC; assay: Chemokine induction in PBMC (capture ELISA); assay type: cell-based; conditions: background (196) subtracted
Procedure, shortened: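 Human PBMC from healthy donors' heparinised blood (Ficoll), 7.5×10^5 cells treated with 20 or 100 μg/ml peptide for 24 h at 37° C, 5% CO2. Cell-free supernatants assayed for CXCL1 by capture ELISA.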

[2] = test system: MCP-1 release by human PBMC; assay: Chemokine induction in PBMC (capture ELISA); assay type: cell-based; conditions: background (204) subtracted
Procedure, shortened: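 Heparinized blood from healthy volunteers; Ficoll-isolated human PBMC (7.5×10^5) treated with peptides at 20 or 100 μg/ml for 24 hours at 37° C, 5% CO2. Cell-free supernatants assayed for MCP-1 by capture ELISA.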

[3] = test system: Staphylococcus aureus ATCC25923; assay type: cell-based; conditions: ATCC25923
Procedure, shortened: (§1)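 Broth microdilution in Mueller Hinton medium; peptides serially diluted at 10× in 0.01% acetic acid with 0.2% BSA, then added to polypropylene plates. Inoculum 2-7×10^5 CFU/ml from overnight culture, incubated overnight at 37° C. MIC = lowest concentration showing no growth.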

[4] = test system: Enterococcus faecalis ATCC29212; assay type: cell-based; conditions: ATCC29212
Procedure, shortened: as §1

[5] = test system: wild-type Salmonella enterica ssp. typhimurium; assay type: cell-based
Procedure, shortened: as §1

[6] = test system: lab isolate of Candida albicans; assay type: cell-based; conditions: lab isolate of
Procedure, shortened: as §1

[7] = test system: clinical isolate of Staphylococcus epidermidis; assay type: cell-based; conditions: clinical isolate of
Procedure, shortened: as §1

[8] = test system: Escherichia coli UB1005; assay type: cell-based; conditions: UB1005
Procedure, shortened: as §1

[9] = test system: ESBL E. cloacae; assay type: cell-based, Enterobacter cloacae
Experimental: (§2) Minimal inhibitory concentration (MIC) determination. The MIC of the peptides were measured using a modified broth microdilution method in Mueller Hinton (MH) medium (Wu M, Hancock R E W. 1999. Interaction of the cyclic antimicrobial cationic peptide bactenecin with the outer and cytoplasmic membrane. J Biol Chem 274, 29-35). Briefly, the peptides were dissolved and stored in glass vials. The assay was performed in sterile 96-well polypropylene microtitre plates were used. Serial dilutions of the peptides to be assayed were performed in 0.01% acetic acid (Fisher) containing 0.2% bovine serum albumin (Boehringer Mannheim GmbH) at 10× the desired final concentration. Ten microlitres of the 10× peptides were added to each well of a 96-well polypropylene plate containing 90 μl of MH media per well. Bacteria were added to the plate from an overnight culture at 2-7×10^5 colony forming units/ml and incubated over night at 37° C. The MIC was taken as the concentration at which no growth was observed.
(§3) All peptides derived from the 1st, 2nd, and 3rd quartiles were further evaluated for their antibacterial activities against several highly antibitoic resistant pathogens (Table 3). These included clinical isolates of MRSA, ESBL E. cloacae, and multidrug resistant Pseudomonas strains including Brazilian clinical isolates of P. aeruginosa that are resistant to meropenem, ceftazidime, piperacillin/tazobactam, ciprofloxacin, cefepime and polymyxin B, and the Liverpool Epidemic Strains. […] Such results characterize the developed peptides as excellent antibiotic candidates, providing new means for treating most dangerous and severe forms of human infections.

[10] = test system: ESBL E. coli clinical strain 64771; assay type: cell-based; conditions: ESBL clinical strain 64771
Experimental: as §2
(§4) The selected peptides were synthesized and assayed against several major antibiotic-resistant pathogens. Initially, the peptides were screened against the laboratory strain of P. aeruginosa PAO1 to compare the results with the training data. […] The antibacterial activity in the form of minimal inhibitory concentration (MIC) of the other studied peptides was assessed in greater depth (Table 9) against many highly antibiotic resistanct pathogens.

[11] = test system: ESBL Klebsiella pneumonia clinical strain 63575; assay type: cell-based
Experimental: as §2, §4

[12] = test system: multidrug resistant Pseudomonas maltophilia ATCC13637; assay type: cell-based
Experimental: as §2, §4

[13] = test system: MCP-3 release by human PBMC; assay: Chemokine induction in PBMC (capture ELISA); assay type: cell-based; conditions: background (6) subtracted
Procedure, shortened: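 Human PBMC from healthy donors (Ficoll-isolated), 7.5×10^5 cells at 0.75–1×10^6 cells/ml, treated with peptides at 20 or 100 μg/ml for 24 h at 37° C, 5% CO2. MCP-3 in cell-free supernatants measured by capture ELISA.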

[14] = test system: Liverpool Epidemic Strains; assay type: cell-based, Pseudomonas aeruginosa
Experimental: as §2, §3

[15] = test system: clinical isolates of MRSA; assay type: cell-based, Staphylococcus aureus
Experimental: as §2, §3

[16] = test system: Pseudomonas aeruginosa PAO1 strain H103; assay type: cell-based
Procedure, shortened: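 Modified broth microdilution MIC in Mueller Hinton medium, peptides diluted in 0.01% acetic acid/0.2% BSA, polypropylene plates. Inoculum 2-7×10^5 CFU/ml, overnight at 37 °C; MIC is the lowest concentration with no visible growth.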

Compound | Chemokine induction Gro-α ([1]; 20 μg/ml peptide) | Chemokine induction Gro-α ([1]; 100 μg/ml peptide) | Chemokine induction MCP-1 ([2]; 20 μg/ml peptide) | Chemokine induction MCP-1 ([2]; 100 μg/ml peptide) | MIC [3] | MIC [4] | MIC [9] | MIC [10] | MIC [11] | MIC [12] | Chemokine induction MCP-3 ([13]; 20 μg/ml peptide) | Chemokine induction MCP-3 ([13]; 100 μg/ml peptide) | MIC [14] | MIC [15] | MIC against P. aeruginosa PAO1 ([16]; PAO1) | further results
CC[C@H](C)[C@H](NC(=O)[C@H](CCCNC(=N)N)NC(=O)[C@H](C)NC(=O)[C@H](CC(C)C)NC(=O)[C@@H](N)CCCNC(=N)N)C(=O)N[C@H](C(=O)N[C@H](C(=O)N[C@H](C(=O)N[C@@H](CCCNC(=N)N)C(=O)N[C@H](C(=O)N[C@@H](C)C(=O)N[C@@H](CCCNC(=N)N)C(N)=O)C(C)C)[C@@H](C)CC)C(C)C)C(C)C [Bac2A, RLARIVVIRVAR-NH2, reference compound] (H-RLARIVVIRVAR-NH2; N-terminus assumed) | 9 pg/mL | 8 pg/mL | 316 pg/mL | 442 pg/mL | 24 µM (≈ 34.1 µg/mL) | 12 µM (≈ 17 µg/mL) | 24 µM (≈ 34.1 µg/mL) | 24 µM (≈ 34.1 µg/mL) | 192 µM (≈ 273 µg/mL) | 3 µM (≈ 4.26 µg/mL) | 2 pg/mL | 2 pg/mL | 12 µM (≈ 17 µg/mL) | 24 µM (≈ 34.1 µg/mL) |  | MIC S. aureus [3]: 17 µg/mL (≈ 12 µM); MIC E. faecalis [4]: 17 µg/mL (≈ 12 µM); MIC S. typhi [5]: 34 µg/mL (≈ 23.9 µM); MIC C. albicans [6]: 9 µg/mL (≈ 6.33 µM); MIC S. epi. [7]: 4 µg/mL (≈ 2.82 µM); MIC E. coli [8]: 17 µg/mL (≈ 12 µM); MIC P. aerug ([16]; PAO1): 50 µg/mL (≈ 35.2 µM)
CC[C@H](C)[C@H](NC(=O)[C@H](Cc1c[nH]c2ccccc12)NC(=O)[C@@H](NC(=O)[C@H](Cc1c[nH]c2ccccc12)NC(=O)[C@H](CCCNC(=N)N)NC(=O)[C@H](CCCCN)NC(=O)[C@@H](N)CCCCN)C(C)C)C(=O)N[C@@H](CCCNC(=N)N)C(=O)N[C@@H](Cc1ccc(O)cc1)C(N)=O [HHC69, KKRWVWIRY] (H-KKRWVWIRY-NH2; N-terminus assumed) | 17 pg/mL | -3 pg/mL | 440 pg/mL | 245 pg/mL | 13 µM (≈ 17.3 µg/mL) | 25 µM (≈ 33.3 µg/mL) | 25 µM (≈ 33.3 µg/mL) | 13 µM (≈ 17.3 µg/mL) | 51 µM (≈ 68 µg/mL) | 1.6 µM (≈ 2.13 µg/mL) | 1 pg/mL | 0 pg/mL | 3 µM (≈ 4 µg/mL) | 13 µM (≈ 17.3 µg/mL) | 4 to 12 µM | 
CC[C@H](C)[C@H](NC(=O)[C@H](Cc1c[nH]c2ccccc12)NC(=O)[C@H](CCCCN)NC(=O)[C@@H](N)CCCNC(=N)N)C(=O)N[C@@H](Cc1c[nH]c2ccccc12)C(=O)N[C@@H](CCCNC(=N)N)C(=O)N[C@@H](Cc1c[nH]c2ccccc12)C(=O)N[C@@H](Cc1ccccc1)C(=O)N[C@@H](CC(C)C)C(N)=O [HHC75, RKWIWRWFL] (H-RKWIWRWFL-NH2; N-terminus assumed) | 554 pg/mL | 1683 pg/mL | 1313 pg/mL | 6140 pg/mL | 31 µM (≈ 43.1 µg/mL) | 6 µM (≈ 8.34 µg/mL) | 3 µM (≈ 4.17 µg/mL) | 1.5 µM (≈ 2.08 µg/mL) | 3.1 µM (≈ 4.31 µg/mL) | 1.5 µM (≈ 2.08 µg/mL) | 34 pg/mL | 322 pg/mL | 1.5 µM (≈ 2.08 µg/mL) | 3 µM (≈ 4.17 µg/mL) | 4 to 12 µM | 
CC[C@H](C)[C@H](N)C(=O)N[C@@H](Cc1c[nH]c2ccccc12)C(=O)N[C@@H](Cc1c[nH]c2ccccc12)C(=O)N[C@@H](CCCCN)C(=O)N[C@@H](Cc1c[nH]c2ccccc12)C(=O)N[C@@H](CCCNC(=N)N)C(=O)N[C@@H](CCCNC(=N)N)C(=O)N[C@@H](Cc1c[nH]c2ccccc12)C(=O)N[C@H](C(N)=O)C(C)C [HHC77, IWWKWRRWV] (H-IWWKWRRWV-NH2; N-terminus assumed) | -22 pg/mL | 50 pg/mL | 98 pg/mL | 4548 pg/mL | 3 µM (≈ 4.24 µg/mL) | 24 µM (≈ 34 µg/mL) | 6 µM (≈ 8.49 µg/mL) | 6 µM (≈ 8.49 µg/mL) | 12 µM (≈ 17 µg/mL) | 1.5 µM (≈ 2.12 µg/mL) | 0 pg/mL | 23 pg/mL | 6 µM (≈ 8.49 µg/mL) | 3 µM (≈ 4.24 µg/mL) | 4 to 12 µM | 
CC[C@H](C)[C@H](NC(=O)[C@H](Cc1ccccc1)NC(=O)[C@H](CCCCN)NC(=O)[C@H](Cc1ccccc1)NC(=O)[C@H](CCCNC(=N)N)NC(=O)[C@@H](N)CCCNC(=N)N)C(=O)N[C@@H](CCCNC(=N)N)C(=O)N[C@@H](Cc1c[nH]c2ccccc12)C(=O)N[C@@H](Cc1c[nH]c2ccccc12)C(N)=O [HHC100, RRFKFIRWW] (H-RRFKFIRWW-NH2; N-terminus assumed) | -18 pg/mL | -43 pg/mL | 179 pg/mL | 197 pg/mL | 6 µM (≈ 8.36 µg/mL) | 12 µM (≈ 16.7 µg/mL) | 12 µM (≈ 16.7 µg/mL) | 12 µM (≈ 16.7 µg/mL) | 49 µM (≈ 68.3 µg/mL) | 0.8 µM (≈ 1.11 µg/mL) | -1 pg/mL | 0 pg/mL | 3 µM (≈ 4.18 µg/mL) | 6 µM (≈ 8.36 µg/mL) | 4 to 12 µM | 
CC(C)[C@H](NC(=O)[C@H](CCCNC(=N)N)NC(=O)[C@H](CCCCN)NC(=O)[C@@H](NC(=O)[C@H](Cc1ccccc1)NC(=O)[C@H](CCCCN)NC(=O)[C@H](Cc1c[nH]c2ccccc12)NC(=O)[C@@H](NC(=O)[C@H](C)N)C(C)C)C(C)C)C(N)=O [HHC123, AVWKFVKRV] (H-AVWKFVKRV-NH2; N-terminus assumed) | -25 pg/mL | 17 pg/mL | 46 pg/mL | 204 pg/mL | 240 µM (≈ 272 µg/mL) | >240 µM | >240 µM | 120 µM (≈ 136 µg/mL) | >240 µM | 60 µM (≈ 67.9 µg/mL) | 0 pg/mL | 3 pg/mL | 120 µM (≈ 136 µg/mL) | 240 µM (≈ 272 µg/mL) |  | antimicrobial activity against P. aeruginosa PAO1 (in words) ([16]; laboratory strain P. aeruginosa PAO1): did not return any generally active substances
